Assays:
[1] = Excipient compatibility and formulation stability studies; format: physicochemical; settings: excipient compatibility studies for tablet formulations
Description: Compound 1 drug substance may have a low bulk density, small particle size, and needle-like morphology, all leading to poor flowability. Dry granulation using roller compaction was improved the powder flow and bulk density characteristics to enable capsule-filling. In addition, while glidants such as talc and colloidal silicon dioxide were not effective in improving powder flow and bulk density characteristics, mannitol and microcrystalline cellulose fillers improved the blend flow in the roller compactor.
In particular, these studies indicated less risk of instability in the presence of lactose as a diluent compared to mannitol.

[2] = Solid form stability on standing after recrystallization from MEK/IPA; format: physicochemical; settings: recrystallized from MEK/IPA at 40° C., filtered at 25° C.
Description: Preparation A: Amorphous Compound 1 (prepared as described in U.S. Pat. No. 10,781,218, which is herein incorporated by reference in its entirety) was dissolved in 1:1 MEK/IPA v/v (4.5 mL/g) at ˜50-65° C. under N2. The solution was cooled to 33-37° C. Seed crystals were added (0.8-1.2 wt % relative to Compound 1) and the mixture was stirred for 4-6 h at 33-37° C. The mixture was cooled to 23-27° C. over 3-4 hours and stirred for 16-24 hours. Isopropanol (8.6-9.1 mL/g Compound 1) was added at 23-27° C. over 9-11 hours and then the mixture was stirred for 5-6 hours. The mixture was cooled to 3-8° C. over 4-6 hours and stirred for at least 24 hours. The resulting solid precipitate was collected at 5° C. The filter cake was rinsed with IPA (1.8-2.1 mL/g Compound 1) at 3-8° C. and dried under vacuum at 45-55° C. for 24-32 hours. XRPD analysis confirmed the isolated material as crystalline Compound 1, Form 1. Purity of 99.5% by HPLC and total residual solvents was about 0.4% wt by ^1H NMR. Recrystallization of Compound 1, Form 1, in MEK/IPA (6 v/12 v) by dissolving in MEK and adding IPA in portions at 25° C., stirring the suspension after addition of each IPA portion, cooling to 5° C., and stirring at 5° C. for 20 h produced a wet cake that was a mixture of two crystalline forms (Form 2 and Form 5) that were not Form 1. […]

| Structure (SMILES) | Stability of Compound 1 with excipients [1] | Solid form stability upon standing [2] |
| --- | --- | --- |
| CNc1nc(NC2CCN(Cc3ccc4c(cc(C#N)n4C[C@H](C)N4CCN(S(C)(=O)=O)CC4)c3C)CC2)c2cc(CC(F)(F)F)sc2n1 [Compound 1, (S)-4-methyl-5-((4-((2-(methylamino)-6-(2,2,2-trifluoroethyl)thieno[2,3-d]pyrimidin-4-yl)amino)piperidin-1-yl)methyl)-1-(2-(4-(methylsulfonyl)piperazin-1-yl)propyl)-1H-indole-2-carbonitrile] | impact to Compound 1 stability with certain excipients |  |
| CNc1nc(NC2CCN(Cc3ccc4c(cc(C#N)n4C[C@H](C)N4CCN(S(C)(=O)=O)CC4)c3C)CC2)c2cc(CC(F)(F)F)sc2n1 [Form 1, (S)-4-methyl-5-((4-((2-(methylamino)-6-(2,2,2-trifluoroethyl)thieno[2,3-d]pyrimidin-4-yl)amino)piperidin-1-yl)methyl)-1-(2-(4-(methylsulfonyl)piperazin-1-yl)propyl)-1H-indole-2-carbonitrile] |  | converted to Form 5 |
